Test: Control of loss of volatile components: amounts in the AI patch after storage, by gas chromatography
Type: physicochemical
Details: 12 wks, device with in situ seal
Experimental: A transdermal hormone delivery device was prepared comprising an internal backing layer, an AI layer, and a release liner. […] The device also comprised an overlay comprising a polyurethane […] backing, which is able to absorb large amounts of the volatile excipients, DMSO and ethyl lactate, an acrylic PSA coated onto the polyurethane foam, and a PIB PSA coated on top of the acrylic PSA. […] The release liner was a Mylar polyester film coated with a fluoropolymer release coating. […] The devices were placed in a 25° C. or 40° C. oven. After 6 weeks and 12 weeks, devices were removed from the oven and the active section of each device was separated from the overlay. […] (12 weeks exposure to 40° C. is intended to simulate 18 months exposure to room temperature (25° C.)).

Amount in the AI patch (40° C.): 9.20 wt % | Amount in the AI patch (room temp): 9.10 wt %
SMILES: CCCCCCCCCCCCOC(=O)C(C)O (centres unmarked) [Lauryl Lactate, lauryl lactate]

Reference: patent publication US8747888B2, “Dermal delivery device with in situ seal” (Agile Therapeutics, Inc., priority 2007, dated 2014)
